Reference: ChEMBL document CHEMBL1156955 (Bioorg Med Chem Lett, 2010)

How the values were obtained:
[1] = Volume of distribution in mouse at 5 mg/kg, iv; assay type: ADME, organism-based; design: dose 5 mg/kg, route intravenous; conditions: in vivo
[2] = AUC (0 to infinity) in mouse at 5 mg/kg, iv; assay type: ADME, organism-based; design: time infinity, dose 5 mg/kg, route intravenous; conditions: plasma
[3] = Drug level in plasma of nude mouse bearing human MDA-MB-361 cells at 25 mg/kg, iv after 8 hrs; assay type: ADME, organism-based; design: dose 25 mg/kg, route intravenous; conditions: read-out: Drug uptake
[4] = Drug level in tumor of human MDA-MB-361 cells xenografted nude mouse at 25 mg/kg, iv after 8 hrs; assay type: ADME, organism-based, Neoplasm; design: dose 25 mg/kg, route intravenous; conditions: read-out: Drug uptake

`CC(C)N1CCN(C(=O)c2ccc(NC(=O)Nc3ccc(-c4nc(C5CCOCC5)nc(N5C6CCC5COC6)n4)cc3)cc2)CC1` showed a Vd [1] of 1.3 L/kg, an AUC(0-inf) [2] of 16700 ng·h/mL and a concentration at 8 h [3] of 2160 ng/mL. For the same compound, the concentration at 8 h [4] was 2470 ng/mL.
